These results are taken from the supplement of paper PMC10307832.

SMILES strings stand for the structures.

For one assay, the system named is NCI-H650. Nature of the assay: relative viability (nuclei count vs DMSO), 5 days (fraction); higher = more cells survive. The settings on record: first compound 8 µM. The method, boiled down:
(§1)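 Relative viability was taken as the ratio of nuclei in treated wells to nuclei in vehicle wells. Lung cancer cell lines in 1536-well plates received compounds by pin tool one day after seeding, either one drug alone or a fixed anchor-drug dose plus five library-drug doses (not always all listed) in √10 steps. Nuclei were counted on 4× images after 5 days of treatment, and values are medians of duplicate plates.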
`CCCCCCCCCCCC1=C(O)C(=O)C=C(O)C1=O` [Embelin] + C[C@@H](Oc1cc(-c2cnn(C3CCNCC3)c2)cnc1N)c1c(Cl)ccc(F)c1Cl [Crizotinib] (partner 1 µM) registered a relative viability of 0.782.

The next assay deals with NCI-H1395. Described as above. As to conditions: first compound 0.08 µM. Put shortly: as §1
Compound `CCCCCCCCCCCC1=C(O)C(=O)C=C(O)C1=O` [Embelin] + O=C(CCCCCCC(=O)Nc1ccccc1)NO [Vorinostat] (partner 1 µM) showed a relative viability of 0.615.
`CCCCCCCCCCCC1=C(O)C(=O)C=C(O)C1=O` [Embelin] + C[C@]1(O)C[C@@H](c2nc(-c3ccc4ccc(-c5ccccc5)nc4c3)c3c(N)nccn32)C1 [Linsitinib] (partner 1 µM): the relative viability worked out at 1.22.
Regarding `CCCCCCCCCCCC1=C(O)C(=O)C=C(O)C1=O` [Embelin] + CS(=O)(=O)CCNCc1ccc(-c2ccc3ncnc(Nc4ccc(OCc5cccc(F)c5)c(Cl)c4)c3c2)o1 [Lapatinib] (partner 2 µM), the relative viability came to 1.11.

Staying with this assay, now noted: first compound 0.8 µM.
On to `CCCCCCCCCCCC1=C(O)C(=O)C=C(O)C1=O` [Embelin] + O=C(CCCCCCC(=O)Nc1ccccc1)NO [Vorinostat] (partner 1 µM), for which the relative viability worked out at 1.
With `CCCCCCCCCCCC1=C(O)C(=O)C=C(O)C1=O` [Embelin] + C[C@]1(O)C[C@@H](c2nc(-c3ccc4ccc(-c5ccccc5)nc4c3)c3c(N)nccn32)C1 [Linsitinib] (partner 1 µM), the relative viability is 1.38.
`CCCCCCCCCCCC1=C(O)C(=O)C=C(O)C1=O` [Embelin] + CS(=O)(=O)CCNCc1ccc(-c2ccc3ncnc(Nc4ccc(OCc5cccc(F)c5)c(Cl)c4)c3c2)o1 [Lapatinib] (partner 2 µM) showed a relative viability of 1.27.

The same assay, now with this note: first compound 2.53 µM.
Compound `CCCCCCCCCCCC1=C(O)C(=O)C=C(O)C1=O` [Embelin] + O=C(CCCCCCC(=O)Nc1ccccc1)NO [Vorinostat] (partner 1 µM) gave a relative viability of 0.48.
On to `CCCCCCCCCCCC1=C(O)C(=O)C=C(O)C1=O` [Embelin] + C[C@]1(O)C[C@@H](c2nc(-c3ccc4ccc(-c5ccccc5)nc4c3)c3c(N)nccn32)C1 [Linsitinib] (partner 1 µM), for which the relative viability was found to be 0.99.
For `CCCCCCCCCCCC1=C(O)C(=O)C=C(O)C1=O` [Embelin] + CS(=O)(=O)CCNCc1ccc(-c2ccc3ncnc(Nc4ccc(OCc5cccc(F)c5)c(Cl)c4)c3c2)o1 [Lapatinib] (partner 2 µM), the relative viability amounted to 0.99.

Staying with this assay, now noted: first compound 8 µM.
Compound `CCCCCCCCCCCC1=C(O)C(=O)C=C(O)C1=O` [Embelin] + O=C(CCCCCCC(=O)Nc1ccccc1)NO [Vorinostat] (partner 1 µM) showed a relative viability of 0.521.
Take `CCCCCCCCCCCC1=C(O)C(=O)C=C(O)C1=O` [Embelin] + C[C@]1(O)C[C@@H](c2nc(-c3ccc4ccc(-c5ccccc5)nc4c3)c3c(N)nccn32)C1 [Linsitinib] (partner 1 µM): the relative viability is 0.873.
Consider `CCCCCCCCCCCC1=C(O)C(=O)C=C(O)C1=O` [Embelin] + CS(=O)(=O)CCNCc1ccc(-c2ccc3ncnc(Nc4ccc(OCc5cccc(F)c5)c(Cl)c4)c3c2)o1 [Lapatinib] (partner 2 µM), for which the relative viability came to 0.754.

The subject of another assay is IA-LM. The description is as above. As to conditions: first compound 0.08 µM. Put shortly:
as §1
In turn, `CCCCCCCCCCCC1=C(O)C(=O)C=C(O)C1=O` [Embelin] + O=C(CCCCCCC(=O)Nc1ccccc1)NO [Vorinostat] (partner 1 µM) displayed a relative viability of 0.963.
Same read-out and setting: next, `CCCCCCCCCCCC1=C(O)C(=O)C=C(O)C1=O` [Embelin] + C[C@]1(O)C[C@@H](c2nc(-c3ccc4ccc(-c5ccccc5)nc4c3)c3c(N)nccn32)C1 [Linsitinib] (partner 1 µM): 0.425; `CCCCCCCCCCCC1=C(O)C(=O)C=C(O)C1=O` [Embelin] + CC(C)C[C@H](NC(=O)[C@H](Cc1ccccc1)NC(=O)c1cnccn1)B(O)O [Bortezomib] (partner 0.002 µM): 0.769; `CCCCCCCCCCCC1=C(O)C(=O)C=C(O)C1=O` [Embelin] + CS(=O)(=O)CCNCc1ccc(-c2ccc3ncnc(Nc4ccc(OCc5cccc(F)c5)c(Cl)c4)c3c2)o1 [Lapatinib] (partner 2 µM): 0.769.
In turn, `CCCCCCCCCCCC1=C(O)C(=O)C=C(O)C1=O` [Embelin] + C[C@@H](Oc1cc(-c2cnn(C3CCNCC3)c2)cnc1N)c1c(Cl)ccc(F)c1Cl [Crizotinib] (partner 1 µM) showed a relative viability of 0.718.

The same assay, now with this note: first compound 0.8 µM.
Take `CCCCCCCCCCCC1=C(O)C(=O)C=C(O)C1=O` [Embelin] + O=C(CCCCCCC(=O)Nc1ccccc1)NO [Vorinostat] (partner 1 µM): the relative viability turned out to be 1.03.
Take `CCCCCCCCCCCC1=C(O)C(=O)C=C(O)C1=O` [Embelin] + C[C@]1(O)C[C@@H](c2nc(-c3ccc4ccc(-c5ccccc5)nc4c3)c3c(N)nccn32)C1 [Linsitinib] (partner 1 µM): the relative viability was 0.799.
Turning to `CCCCCCCCCCCC1=C(O)C(=O)C=C(O)C1=O` [Embelin] + CC(C)C[C@H](NC(=O)[C@H](Cc1ccccc1)NC(=O)c1cnccn1)B(O)O [Bortezomib] (partner 0.002 µM), the relative viability came to 0.904.
Still for that read-out and setting: next, `CCCCCCCCCCCC1=C(O)C(=O)C=C(O)C1=O` [Embelin] + CS(=O)(=O)CCNCc1ccc(-c2ccc3ncnc(Nc4ccc(OCc5cccc(F)c5)c(Cl)c4)c3c2)o1 [Lapatinib] (partner 2 µM): 0.894; `CCCCCCCCCCCC1=C(O)C(=O)C=C(O)C1=O` [Embelin] + C[C@@H](Oc1cc(-c2cnn(C3CCNCC3)c2)cnc1N)c1c(Cl)ccc(F)c1Cl [Crizotinib] (partner 1 µM): 0.85.

The assay is the same for the next values; noted with them: first compound 2.53 µM.
Turning to `CCCCCCCCCCCC1=C(O)C(=O)C=C(O)C1=O` [Embelin] + O=C(CCCCCCC(=O)Nc1ccccc1)NO [Vorinostat] (partner 1 µM), the relative viability amounted to 1.2.
Turning to `CCCCCCCCCCCC1=C(O)C(=O)C=C(O)C1=O` [Embelin] + C[C@]1(O)C[C@@H](c2nc(-c3ccc4ccc(-c5ccccc5)nc4c3)c3c(N)nccn32)C1 [Linsitinib] (partner 1 µM), the relative viability was 0.536.
In the case of `CCCCCCCCCCCC1=C(O)C(=O)C=C(O)C1=O` [Embelin] + CC(C)C[C@H](NC(=O)[C@H](Cc1ccccc1)NC(=O)c1cnccn1)B(O)O [Bortezomib] (partner 0.002 µM), the relative viability is 0.913.
In turn, `CCCCCCCCCCCC1=C(O)C(=O)C=C(O)C1=O` [Embelin] + CS(=O)(=O)CCNCc1ccc(-c2ccc3ncnc(Nc4ccc(OCc5cccc(F)c5)c(Cl)c4)c3c2)o1 [Lapatinib] (partner 2 µM) returned a relative viability of 0.789.
As to `CCCCCCCCCCCC1=C(O)C(=O)C=C(O)C1=O` [Embelin] + C[C@@H](Oc1cc(-c2cnn(C3CCNCC3)c2)cnc1N)c1c(Cl)ccc(F)c1Cl [Crizotinib] (partner 1 µM), the relative viability worked out at 0.729.
